Test results reported in patent publication US20030157672A1, “Nitrilase from rhodococcus rhodochrous ncimb 11216” (priority 2000, published 2003).

B1: nitrilase with His6 motif: Recombinant nitA nitrilase of R. rhodochrous NCIMB 11216 with C-terminal His6 motif from E. coli JM 109 (pDHE 18), purified on Ni2+-NTA (protein, UniProt Q03217 2-366, looked up)
Aliphatic nitrilase: VEYTNTFKVAAVQAQPVWFDAAKTVDKTVSIIAEAARNGCELVAFPEVFIPGYPYHIWVDSPLAGMAKFAVRYHENSLTMDSPHVQRLLDAARDHNIAVVVGISERDGGSLYMTQLVIDADGQLVARRRKLKPTHVERSVYGEGNGSDISVYDMPFARLGALNCWEHFQTLTKYAMYSMHEQVHVASWPGMSLYQPEVPAFGVDAQLTATRMYALEGQTFVVCTTQVVTPEAHEFFCDNDEQRKLIGRGGGFARIIGPDGRDLATPLAEDEEGILYADIDLSAITLAKQAADPVGHYSRPDVLSLNFNQRHTTPVNTAISTIHATHTLVPQSGALDGVRELNGADEQRALPSTHSDETDRATASI
modifications: C-terminal His6 tag
notes: Recombinant nitA nitrilase of R. rhodochrous NCIMB 11216 with C-terminal His6 motif from E. coli JM 109 (pDHE 18), purified on Ni2+-NTA

System: nitrilase (nitA) from Rhodococcus rhodochrous NCIMB 11216 expressed in E. coli JM 109
Experiment: Conversion of nitriles by E. coli JM 109 (pDHE 17 and pDHE 18) cells; NH4 ions produced in supernatant, measured at 620 nm
Type: biochemical
Conditions: Experiment 1; E. coli JM 109 (pDHE 17 and pDHE 18) cells, 2 g DBM/l, 30° C., 200 rpm, 1 h; measurement at 620 nm
Experimental: Various nitriles were converted using the E. coli strains JM 109 (pDHE 17 and pDHE 18). The cells were for this purpose cultured in 250 ml LB/Amp medium+2 g/l rhamnose at 30° C. and 200 rpm for 9 hours (=h). The cells were harvested by-centrifugation (20 min, 4° C., 5000 rpm). The cells were then resuspended in 10 mM phosphate buffer, pH 7.2, so that the concentration of dry biomass (DBM) was 2 g DBM/l. 150 μl portions of the cell suspension were pipetted into each well of a microtiter plate. The plate was then centrifuged. The supernatant was aspirated off and the cell pellets were washed twice with Na2HPO4 [sic] (1.42 g/lin Finnagua, pH 7.2). After another centrifugation step, the cell pellets are [sic] resuspended in the respective substrate solution (150 μl). One substrate was added to each row of 12 in the microtiter plate. A row with substrate solution but without cells was used as control (blank). The microtiter plates were incubated in a shaking incubator at 30° C. and 200 rpm for 1 h. The cells were then spun down and the amount of NH4 [sic] ions produced in the supernatant was determined using a Biomek instrument. Measurement took place at 620 nm, comparing with a calibration plot produced using various NH4OH solutions. The substrates employed in Experiment 1 (see FIG. 3, Table 1) were the following substrates: benzonitrile (=1), 3-hydroxypropionitrile (=2), 2-methylglutaronitrile (=3), 4-chloro-3-hydroxybutyronitrile (=4), malononitrile (=5), crotononitrile (=6), geranonitrile (=7), octanedinitrile (=8), pivalonitrile (=9), aminocapronitrile (=10), 3,4-dihydroxybenzonitrile (=11), 3,5-dibromo-4-hydroxybenzonitrile (=12), 3-cyanopyridine (=13), 4-bromobenzyl cyanide (=14), 4-chlorobenzyl cyanide (=15), 2-phenylbutyronitrile (=16), 2-chlorobenzyl cyanide (=17), 2-pyridylacetonitrile (=18), 4-fluorobenzyl cyanide (=19), 4-methylbenzonitrile (=20), benzyl cyanide (=21). The substrates used in Experiment 2 (see FIG. 4, Table 2), which was carried out in analogy to Experiment 1, were as follows: […]

First: N#CCC(O)CCl (stereo not shown) [4-Chloro-3-hydroxybutyronitrile]
Second: N#CCCO [3-Hydroxypropionitrile]
The “amount of NH4 ions produced in the supernatant (Table 1, Experiment 1)” value (from here on “amount … (Table 1, Experiment 1)”) of the first is lower: 0.1208 for the first, 0.1785 for the second.

First: CC=CC#N [Crotononitrile]
Second: CC(C)=CCC/C(C)=C/C#N [Geranonitrile]
The “amount … (Table 1, Experiment 1)” value of the first is higher: 0.4946 for the first, 0.1517 for the second.

Going from N#CCc1ccccn1 [2-Pyridylacetonitrile] to N#CCc1ccccc1 [Benzyl cyanide], the “amount … (Table 1, Experiment 1)” value rises from 0.1222 to 0.2755.

Compared with N#CCc1ccccc1Cl [2-Chlorobenzyl cyanide], N#CCc1ccc(Cl)cc1 [4-Chlorobenzyl cyanide] is higher in “amount … (Table 1, Experiment 1)” value: 0.4530 for the first, 0.4830 for the second.

First: Cc1ccc(C#N)cc1 [4-Methylbenzonitrile]
Second: N#Cc1ccccc1 [Benzonitrile]
The “amount … (Table 1, Experiment 1)” value of the first is higher: 0.4326 for the first, 0.4051 for the second.

Compared with N#CCc1ccc(Br)cc1 [4-Bromobenzyl cyanide], N#CCc1ccc(F)cc1 [4-Fluorobenzyl cyanide] is lower in “amount … (Table 1, Experiment 1)” value: 0.5213 for the first, 0.2361 for the second.

Compared with CC(C)(C)C#N [Pivalonitrile], CC(C#N)CCC#N (stereo not shown) [2-Methylglutaronitrile] is higher in “amount … (Table 1, Experiment 1)” value: 0.1569 for the first, 0.4758 for the second.

Going from N#Cc1cccnc1 [3-Cyanopyridine] to N#Cc1ccc(O)c(O)c1 [3,4-Dihydroxybenzonitrile], the “amount … (Table 1, Experiment 1)” value falls from 0.2393 to 0.1569.

First: N#CCCCCCCC#N [Octanedinitrile]
Second: N#CCCCCCN [Aminocapronitrile]
The “amount … (Table 1, Experiment 1)” value of the first is higher: 0.4548 for the first, 0.1236 for the second.

Going from CCC(C#N)c1ccccc1 (stereo not shown) [2-Phenylbutyronitrile] to N#Cc1cc(Br)c(O)c(Br)c1 [3,5-Dibromo-4-hydroxybenzonitrile], the “amount … (Table 1, Experiment 1)” value rises from 0.1376 to 0.1624.

In the case of N#CCC#N [Malononitrile], the “amount … (Table 1, Experiment 1)” value is reported as 0.1208.

Same assay, conditions: Experiment 2, in analogy to Experiment 1; E. coli JM 109 cells, 30° C., 1 h; measurement at 620 nm

First: N#CCc1ccsc1 [3-Cyanomethylthiophene]
Second: N#Cc1ccsc1 [3-Cyanothiophene]
The “amount of NH4 ions produced in the supernatant (Table 2, Experiment 2)” value (“amount … (Table 2, Experiment 2)” for short) of the first is lower: 0.9949 for the first, 1.9038 for the second.

N#CC(N)c1ccccc1 (stereo not shown) [2-Amino-2-phenylacetonitrile] and N#CC(O)c1ccccc1 (stereo not shown) [Mandelonitrile] are the same in “amount … (Table 2, Experiment 2)” value: 0.0000 for the first, 0.0000 for the second.

Going from N#C/C=C/c1ccccc1 [trans-cinnamonitrile] to N#Cc1ccccc1 [Benzonitrile], the “amount … (Table 2, Experiment 2)” value falls from 2.2509 to 1.9518.

Compared with N#C/C=C/C#N [Fumaronitrile], N#CCCCC#N [Glutaronitrile] is lower in “amount … (Table 2, Experiment 2)” value: 2.2510 for the first, 2.0809 for the second.

N#CCC(CC#N)c1ccccc1 [3-Phenylglutaronitrile] and CC(C#N)c1ccccc1 (stereo not shown) [2-Phenylpropionitrile] are the same in “amount … (Table 2, Experiment 2)” value: 0.0000 for the first, 0.0000 for the second.

Going from CC(O)C#N (stereo not shown) [2-Hydroxypropionitrile] to CCC#N [Propionitrile], the “amount … (Table 2, Experiment 2)” value rises from 0.0000 to 0.4135.

Compared with N#CC(O)CCc1ccccc1 (stereo not shown) [2-Hydroxy-4-phenylbutyronitrile], CCCCC#N [Valeronitrile] is higher in “amount … (Table 2, Experiment 2)” value: 0.0000 for the first, 1.9218 for the second.

With COC(CC#N)OC [3,3-Dimethoxypropionitrile] the “amount … (Table 2, Experiment 2)” value was 0.1466.

System: not listed separately
Experiment: Conversion of benzonitrile into benzoic acid by nitrilase crude extract or purified nitrilase (HPLC)
Type: biochemical
Conditions: purified using QIAexpress-Ni2+-NTA; enzyme concentration 50 μg/ml; initial benzonitrile 10 mM, 30° C., pH 7.5, 50 mM Tris/HCl, 0.1 mM DTT
Experimental: For heterologous expression on the laboratory scale, JM 109 (pDHE 17) from a 37° C. overnight culture was inoculated 1:200 in 50 ml dYT complete mediumn (Sambrook et al., 1989) with 0.2% L-rhamnose, and the culture was cultivated with induction in the shaking water bath at 30° C. for 8 h. The cells were then washed once in 50 mM Tris/HCl, pH 7.5, resuspended in the same buffer equivalent to an OD600 of 10, and disrupted by ultrasound treatment. The procedure with JM 109 (pDHE 18) was analogous. The protein pattern of the crude extracts obtained by ultrasound treatment and clarified by centrifugation was determined by SDS polyacrylamide gel electrophoresis, comparing with the noninduced control; with the induction conditions mentioned, the proportion of nitrilase in the protein was about 30% for each of JM 109 (pDHE 17) and JM 109 (pDHE 18).
The nitrilase with His6 motif from JM 109 (pDHE 18) was purified by washing the cells in 50 mM Tris/HCl, pH 7.5, resuspending equivalent to about 50 OD600/ml and preparing extracts with a French press (2×at 20000 psi). […]
In this case, one unit is equivalent to the production of 1 μmol of benzoic acid at an initial benzonitrile concentration of 10 mM, 30° C. and pH 7.5. […] The formation of benzoic acid was determined by HPLC (RP18 column, 250×4 [lacuna], mobile phase 47% methanol, 0.3% H3PO4).

In the case of B1, the “conversion of 2-benzonitrile [sic] into benzoic acid (specific activity), purified nitrilase” value is reported as “around 11 U/mg”.
